{
  "source": "patent US9630962B2",
  "about": "“4-amino-6-(2,6-dichlorophenyl)-2-(phenylamino)-pyrido[2,3-d]pyrimidin-7(8H)-one derivatives, synthesis and uses thereof” (INSTITUT QUÍMIC DE SARRIÁ, CETS FUNDACIÓ PRIVADA, priority 2013, dated 2017)",
  "format_in_all_cases": "cell-based",
  "key": {"[1]": {"tested_on": "phospho-Syk", "assay": "Western blot of BCR kinase phosphorylation in NHL cell lines", "conditions": "6 h, UPN-1, JVM-13, DoHH-2, SUDHL-16 cells", "description": "(§1) Analysis of B-Cell Receptor (BCR) activation signaling molecules by Western Blot and flow cytometry. Total protein extracts in 1% Triton X-100 plus protease and phosphatase inhibitors were made from cells treated with a range of doses of the indicated compound (0.1, 1, 5 and 10 μM). These cells lysates were resolved by standard SDS-PAGE (sodium dodecyl sulfate polyacrylamide gel electrophoresis), transferred to PVDF (polyvinylidene difluoride) membranes and incubated overnight with the indicated primary antibodies (pSyk, pLyn and β-actin) followed by species-matched secondary horseradish peroxidase (HRP)-labelled antibodies. Chemiluminiscence was developed adding ECL (enhanced chemilumiscence) reagent and signal was captured in a LAS4000 device using Image Gauge software (Fujifilm). Intracellular amount of PhosphoY223-Btk was determined by inmunostaining with an anti-phosphoY223-Btk-PE antibody (clone N35-86), using IgG1 K isotype-PE as negative control (BD Biosciences). After the different treatments, cells (5×10^5) were fixed in 4% paraformaldehyde in PBS (15 min, 4° C.), permeabilized with cold methanol (10 min, −20° C.), washed with PBS containing 1% BSA and incubated with the indicated antibodies at room temperature for 15 min. Finally, cells were washed with PBS containing 1% BSA, resuspended in 500 μl PBS and analyzed by flow cytometry in an Attune acoustic focusing cytometer (Life Technologies). The Mean Fluorescence Ratio (MFIR) between the mean fluorescence intensity of Btk-PE signal and isotypic control was then calculated for both untreated and treated conditions. These MFIR were then referred to the untreated control (r).\n(§2) To further assess the inhibitory effect of 4-amino-6-(2,6-dichlorophenyl)-8-methyl-2-(4-(4-methylpiperazin-1-yl)phenylamino)pyrido[2,3-d]pyrimidin-7(8H)-one (Example 5) on the activity of BCR kinases, a set of 4 cell lines representative of each entity was exposed for 6 h to increased doses of 4-amino-6-(2,6-dichlorophenyl)-8-methyl-2-(4-(4-methylpiperazin-1-yl)phenylamino)pyrido[2,3-d]pyrimidin-7(8H)-one (Example 5) and cell contents in phospho-Syk and phospho-Lyn were analysed by SDS-PAGE and western blotting with specific antibodies, using β-actin as a loading control. […] For the evaluation of phospho-Btk protein levels, cell lines were treated as above with a 5 μM dose of the compound and stained with an anti-phospho-Btk phycoerythin(PE)-labeled antibody followed by flow cytometry analysis."}, "[2]": {"tested_on": "phospho-Lyn", "assay": "Western blot of BCR kinase phosphorylation in NHL cell lines", "conditions": "6 h, UPN-1, JVM-13, DoHH-2, SUDHL-16 cells", "description": "as §1, §2"}, "[3]": {"tested_on": "PhosphoY223-Btk", "assay": "Flow cytometry of intracellular PhosphoY223-Btk", "conditions": "5 μM, 6 h", "description": "as §1, with “After the different treatments, cells (5×10^5) were fixed in 4% paraformaldehyde in PBS (15 min, 4° C.), permeabilized with cold methanol (10 min, −20° C.), washed with PBS containing 1% BSA and incubated with the indicated antibodies at room temperature for 15 min.” left out, “These MFIR were then referred to the untreated control (r).” left out\nTo further assess the inhibitory effect of 4-amino-6-(2,6-dichlorophenyl)-8-methyl-2-(4-(4-methylpiperazin-1-yl)phenylamino)pyrido[2,3-d]pyrimidin-7(8H)-one (Example 5) on the activity of BCR kinases, a set of 4 cell lines representative of each entity was exposed for 6 h to increased doses of 4-amino-6-(2,6-dichlorophenyl)-8-methyl-2-(4-(4-methylpiperazin-1-yl)phenylamino)pyrido[2,3-d]pyrimidin-7(8H)-one (Example 5) and cell contents in phospho-Syk and phospho-Lyn were analysed by SDS-PAGE and western blotting with specific antibodies, using β-actin as a loading control. […]"}, "[4]": {"tested_on": "panel of 20 NHLs cell lines", "assay": "MTT proliferation assay, growth inhibition", "conditions": "all tested cell lines", "description": "(§3) Cell culture: cell lines were grown in suitable culture media at 37° C. in a humidified atmosphere containing 5% CO2. The following MCL cell lines were used in the assays: Rec-1, HBL-2, UPN-1, Jeko-1, JVM-2, Maver-1, Mino, Granta-519, and Z-138. The following CLL cell lines were used in the assays: MEC-2, JVM-13, and MEC-1. The following FL cell lines were used in the assays: DoHH-2, WSU-NHL, WSU-FSCCL, and SC-1. The following DLBCL cell lines were used in the assays: OCI-LY8, SUDHL-8, U-2932, and SUDHL-16. The following media were used for the indicated cell lines: RPMI 1640+10% foetal bovine serum (FBS) for Rec-1, HBL-2, UPN-1, JVM-2, MAVER, Z138, Mino, JVM-13, WSU-NHL, WSU-FSCCL, DOHH2, SC-1 and U2932; RPMI 1640+20% FBS for Jeko-1, SUDHL-8 and SUDHL-16; DMEM+10% FBS for Granta-519; IMDM+10% FBS for MEC-1 and MEC-2; IMDM+20% FBS for OCI-LY8.\n(§4) Analysis of the growth inhibition is carried out using the MTT (Thiazolyl Blue Tetrazolium Bromide) proliferation assay: cells grown in exponential phase were seeded in 96 well plates at 0.5×10^6 cell/ml and treated with 4-amino-6-(2,6-dichlorophenyl)-8-methyl-2-(4-(4-methylpiperazin-1-yl)phenylamino)pyrido[2,3-d]pyrimidin-7(8H)-one (Example 5) at the doses of 0.5, 1.5, 10, 20, 50 and 100 μM. After 24 h or 48 h, MTT reagent was added to each well, incubated for 2 h and plates were then read in a Synergy-HT Multi-Mode Microplate Reader (Biotek)."}, "[5]": {"tested_on": "CLL cell lines", "assay": "MTT proliferation assay, growth inhibition", "conditions": "n = 3 cell lines", "description": "as §3, §4"}, "[6]": {"tested_on": "DLBCL cell lines", "assay": "MTT proliferation assay, growth inhibition", "conditions": "n = 4 cell lines", "description": "as §3, §4"}, "[7]": {"tested_on": "FL cell lines", "assay": "MTT proliferation assay, growth inhibition", "conditions": "n = 4 cell lines", "description": "as §3, §4"}, "[8]": {"tested_on": "MCL cell lines", "assay": "MTT proliferation assay, growth inhibition", "conditions": "N9, n = 9 cell lines", "description": "as §3, §4"}, "[9]": {"conditions": "24 h, read-out: GI50 range at 24 h"}, "[10]": {"conditions": "24 h, read-out: Mean GI50 at 24 h"}, "[11]": {"conditions": "48 h, read-out: GI50 range at 48 h"}, "[12]": {"conditions": "48 h, read-out: Mean GI50 at 48 h"}},
  "note": "Where two headings read alike, the source gives them in different places.",
  "data": [
    {"molecule": "CN1CCN(c2ccc(Nc3nc(N)c4cc(-c5c(Cl)cccc5Cl)c(=O)n(C)c4n3)cc2)CC1", "note": "[Example 5, 4-amino-6-(2,6-dichlorophenyl)-8-methyl-2-(4-(4-methylpiperazin-1-yl)phenylamino)pyrido[2,3-d]pyrimidin-7(8H)-one]", "values": [
      {"measurement": "Syk phosphorylation inhibition", "setting": "[1]; 1 μM", "value": "already detectable"},
      {"measurement": "Syk phosphorylation inhibition", "setting": "[1]; 5 μM", "value": "significantly enhanced"},
      {"measurement": "Syk phosphorylation inhibition", "setting": "[1]; 10 μM", "value": "almost completely achieved"},
      {"measurement": "Lyn phosphorylation inhibition", "setting": "[2]; 1 μM", "value": "already detectable"},
      {"measurement": "Lyn phosphorylation inhibition", "setting": "[2]; 5 μM", "value": "significantly enhanced"},
      {"measurement": "Lyn phosphorylation inhibition", "setting": "[2]; 10 μM", "value": "almost completely achieved"},
      {"measurement": "downregulation of phospho-Btk (decrease of mean fluorescence intensity ratio)", "setting": "[3]; DoHH-2 cells", "value": 60, "unit": "%"},
      {"measurement": "downregulation of phospho-Btk (decrease of mean fluorescence intensity ratio)", "setting": "[3]; JVM-13 cells", "value": 60, "unit": "%"},
      {"measurement": "downregulation of phospho-Btk (decrease of mean fluorescence intensity ratio)", "setting": "[3]; UPN-1 cells", "value": 30, "unit": "%"},
      {"measurement": "GI50", "setting": "[4]; 24 h, read-out: GI50 mean", "value": 4.3, "unit": "µM"},
      {"measurement": "GI50", "setting": "[4]; 24 h, read-out: GI50 range", "value": "1.3 to 6.9", "unit": "µM"},
      {"measurement": "GI50", "setting": "[4]; 48 h, read-out: GI50 mean", "value": 3.6, "unit": "µM"},
      {"measurement": "GI50", "setting": "[4]; 48 h, read-out: GI50 range", "value": "1.4 to 7.2", "unit": "µM"},
      {"measurement": "GI50", "setting": "[5]; [9]", "value": "5.3 to 6.8", "unit": "µM"},
      {"measurement": "GI50", "setting": "[5]; [10]", "value": 5.9, "unit": "µM"},
      {"measurement": "GI50", "setting": "[5]; [11]", "value": "4.5 to 5.5", "unit": "µM"},
      {"measurement": "GI50", "setting": "[5]; [12]", "value": 4.9, "unit": "µM"},
      {"measurement": "GI50", "setting": "[6]; [9]", "value": "4.3 to 6.9", "unit": "µM"},
      {"measurement": "GI50", "setting": "[6]; [10]", "value": 5.4, "unit": "µM"},
      {"measurement": "GI50", "setting": "[6]; [11]", "value": "3.8 to 7.2", "unit": "µM"},
      {"measurement": "GI50", "setting": "[6]; [12]", "value": 5, "unit": "µM"},
      {"measurement": "GI50", "setting": "[7]; [9]", "value": "2.6 to 4.9", "unit": "µM"},
      {"measurement": "GI50", "setting": "[7]; [10]", "value": 3.7, "unit": "µM"},
      {"measurement": "GI50", "setting": "[7]; [11]", "value": "1.4 to 4.4", "unit": "µM"},
      {"measurement": "GI50", "setting": "[7]; [12]", "value": 2.7, "unit": "µM"},
      {"measurement": "GI50", "setting": "[8]; [9]", "value": "1.3 to 5.9", "unit": "µM"},
      {"measurement": "GI50", "setting": "[8]; [10]", "value": 3.6, "unit": "µM"},
      {"measurement": "GI50", "setting": "[8]; [11]", "value": "2.2 to 3.6", "unit": "µM"},
      {"measurement": "GI50", "setting": "[8]; [12]", "value": 3, "unit": "µM"}
    ]}
  ]
}
